What was measured:
Protein kinase A (PKA) = test: PKA activity assay in cardiomyocytes (ELISA-based kit); type: cell-based, mouse; conditions: isolated cardiomyocytes, pretreatment before AC01/HM01 1 μM
Description: (§1) AC01/HM01 was suspended in phosphate buffer saline solution (PBS: in mM: NaCl 137, KCl 7, Na2HPO4 10, KH2PO4 […]) and diluted to obtain 3 different concentrations: 0.2, 0.5 or 1 μM in Tyrode solution. We used a concentration range within 0.2-1 μM to ensure that the receptor was activated. […] Prior to contractility and Ca^2+ signaling measurements and biochemical assays, cardiomyocyte suspensions from SHAM and HF hearts were randomized to 3 types of treatments: vehicle, AC01/HM01, or D-Lys3-GHPR-6+AC01/HM01. The treatment with different agents occurred for 15 minutes at room temperature. Some cell suspension aliquots were flash frozen in liquid N2 and stored at −80° C. for later biochemistry analyses. All the experiments were conducted blinded regarding the treatment of cardiomyocytes.
Elisa-based PKA kinase activity assay kit (ab139435, Abcam, Cambridge, UK) was employed to determine PKA activity in cardiomyocytes. Aliquots of frozen cardiomyocytes were thawed and mixed with a lysis buffer containing (mM) the following: 20 MOPS, 50 β-glycerolphosphate, 5 EGTA, 2 EDTA, 1 benzamidine, 1 sodium orthovanadate, 1% NP40, 1 DTT, complete protease inhibitor cocktail (Roche Diagnostics, West Sussex, UK) and phosphatase inhibitor cocktail 3 (Sigma, Gillingham, UK). Approximately 2 μg of protein of each sample were assayed according to the manufacturer's instructions 27.

[1] = system: phospho (Ser 22-23) cardiac troponin I (cTnl); test: Phospho (Ser 22-23) cTnl western blot in cardiomyocytes; type: cell-based, mouse; conditions: SHAM cardiomyocytes, antagonist 3 μM before AC01/HM01 1 μM
Description: as §1
Aliquots of frozen cardiomyocyte suspensions were lysed using NP40 buffer (Thermo Fisher FNN0021, Stockholm, Sweden) supplemented with phosphatase inhibitors (Sigma-Aldrich P2850-1ML, P5726-1ML, Stockholm, Sweden). Protein lysates were separated by electrophoresis and transferred onto membranes. Membranes were incubated with primary antibody: rabbit anti phospho (Ser 22-23) cardiac troponin I (cTnl, Cell Signalling, Leiden, The Netherlands #4004S) and rabbit anti-cTnl (Cell Signalling #4002S, Leiden, The Netherlands). Thereafter, infrared-labelled secondary antibodies (IRDye 680 and IRDye 800, 1:5000, Licor) were used. Immunoreactive bands were analyzed using the Odyssey Infrared Imaging System (Li-Cor, Bad Homburg, Germany). Band densities were quantified with Image J (NIH, Bethesda, USA), normalized to total cTnl and final data was expressed as fold increase compared to bands representing protein extracted from vehicle treated cells.

[2] = system: cardiomyocytes isolated from hearts of SHAM mice; test: Cardiomyocyte contractility (fractional shortening, % FS), SHAM cardiomyocytes; type: cell-based, mouse; conditions: antagonist 3 μM before AC01/HM01 1 μM
Description: (§2) Cardiomyocytes were isolated freshly from cardiac ventricles separately from SHAM and HF mice following the protocol developed by the Alliance for Cellular Signalling (AfCS Procedure Protocol ID PP00000125). From each of the 5 SHAM and 3 HF hearts a cell suspension was made and divided into 10 aliquots each, for a total of 50 aliquots from SHAM and 30 aliquots from HF hearts. These aliquots were treated with vehicle, AC01/HM01 or D-Lys3-GHPR-6+AC01/HM01 as stated and used for the subsequent physiological and biochemical experiments.
as §1
Fresh isolated cardiomyocytes were aliquoted in 1.5 mL tubes and incubated with a cell permeable form of the fluorescent Ca^2+ indicator Fluo-3 AM for approximately 20 minutes followed by washing for >5 min. The cells were plated on laminin coated glass bottom dishes (35 mm, Mattek, Ashland, MA, USA), and then mounted in a custom built perfusion/stimulation chamber. Cells were continuously perfused with O2/CO2 (95/5%) bubbled Tyrode solution with the following composition (in mM): NaCl 121, KCl 5.0, CaCl2 1.8, MgCl2 0.5, NaH2PO4 0.4, NaHCO3 24, EDTA 0.1, glucose 5.5, which represents the vehicle solution.
15 aliquots of cardiomyocyte suspension from SHAM and 9 aliquots from HF were randomized to different treatments: vehicle, AC01/HM01 (0.2, 0.5 or 1 μM) or pretreatment with D-Lys3-GHPR-6 (3 μM) followed by AC01/HM01 (1 μM). The cardiomyocytes were electrically stimulated to contract at 1 Hz with supra-threshold voltage using two platinum electrodes attached to the perfusion/stimulation chamber.
(§3) Line scan fluorescence images were acquired using a confocal microscope (Biorad; 40× oil immersion lenses). […] ImageJ software (open source software developed by NIH, Bethesda, USA) was used to quantify changes in fluorescence (Ca^2+ transients) and contractility of single cardiomyocytes.
(§4) The contractility of cardiomyocytes was measured as the percent of length shortening (fractional shortening; % FS). […]

ghrelin receptor = ghrelin receptor (Homo sapiens, UniProt Q92847); conditions: ghrelin receptor antagonist; Sigma Aldrich; read-out: IC50 for antagonistic activity; cited from earlier work
ghrelin receptor, sequence (Q92847 whole entry, species assumed): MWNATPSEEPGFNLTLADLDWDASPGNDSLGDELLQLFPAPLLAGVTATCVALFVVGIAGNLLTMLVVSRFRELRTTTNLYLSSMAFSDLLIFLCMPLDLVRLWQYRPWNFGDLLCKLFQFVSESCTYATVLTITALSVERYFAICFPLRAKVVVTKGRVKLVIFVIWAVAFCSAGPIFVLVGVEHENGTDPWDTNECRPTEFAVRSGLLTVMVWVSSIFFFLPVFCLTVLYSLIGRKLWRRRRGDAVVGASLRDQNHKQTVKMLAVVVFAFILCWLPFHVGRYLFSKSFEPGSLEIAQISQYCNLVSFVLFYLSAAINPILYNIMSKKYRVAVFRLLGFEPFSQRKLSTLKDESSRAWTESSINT

[3] = system: cardiomyocytes isolated from hearts of heart failure (HF) mice; test: Cardiomyocyte contractility (fractional shortening, % FS), heart failure (MI) cardiomyocytes; type: cell-based, mouse; conditions: antagonist 3 μM before AC01/HM01 1 μM
Description: as §2
AC01/HM01 was suspended in phosphate buffer saline solution (PBS: in mM: NaCl 137, KCl 7, Na2HPO4 10, KH2PO4 […]) and diluted to obtain 3 different concentrations: 0.2, 0.5 or 1 μM in Tyrode solution. We used a concentration range within 0.2-1 μM to ensure that the receptor was activated. […]
as §3, §4

For D-Lys 3 GHRP-6 [reference compound], the “effect of pretreatment on AC01/HM01-induced change of PKA activity” value (Protein kinase A (PKA); listed as D-Lys 3) was “blocked”, the “effect of pretreatment on AC01/HM01-induced change of PKA activity” value (Protein kinase A (PKA); listed as D-Lys 3-GHRP-6) was “restored the PKA activity to physiologic levels” and the “effect of pretreatment on AC01/HM01-induced change of cTnl phosphorylation” value ([1]; listed as D-Lys3) was “blocked this effect”. The “effect of pretreatment on AC01/HM01-induced change of cTnl phosphorylation” value ([1]; listed as D-Lys3—GHRP-6) was “restored the phosphorylation levels of cTnl to physiologic levels”, the “effect of pretreatment on contractile effect of AC01/HM01” value [2] was “blocked the contractile effect” and the IC50 (ghrelin receptor) was 0.9 µM. For the same substance, the “effect of pretreatment on contractile effect of AC01/HM01” value [3] was “blocked the contractile effect”.

— patent publication US12648941B2, “Piperidine urea derivatives for use as inotropic agents” (Helsinn Healthcare SA, priority 2021, dated 2026)
